Measured values reported in patent EP1508617B1, “Method for stabilizing an alanine aminotransferase and the corresponding compositions” (SYSMEX CORPORATION, priority 1998, dated 1999).
Like-named read-outs stand apart in the source and are kept apart here.

Molecular target: T1, ALT (Homo sapiens, UniProt P24298)
T1 construct: purchased ASAHI CHEMICAL INDUSTRIES CO., LTD; T-71
T1 sequence (P24298 1-496): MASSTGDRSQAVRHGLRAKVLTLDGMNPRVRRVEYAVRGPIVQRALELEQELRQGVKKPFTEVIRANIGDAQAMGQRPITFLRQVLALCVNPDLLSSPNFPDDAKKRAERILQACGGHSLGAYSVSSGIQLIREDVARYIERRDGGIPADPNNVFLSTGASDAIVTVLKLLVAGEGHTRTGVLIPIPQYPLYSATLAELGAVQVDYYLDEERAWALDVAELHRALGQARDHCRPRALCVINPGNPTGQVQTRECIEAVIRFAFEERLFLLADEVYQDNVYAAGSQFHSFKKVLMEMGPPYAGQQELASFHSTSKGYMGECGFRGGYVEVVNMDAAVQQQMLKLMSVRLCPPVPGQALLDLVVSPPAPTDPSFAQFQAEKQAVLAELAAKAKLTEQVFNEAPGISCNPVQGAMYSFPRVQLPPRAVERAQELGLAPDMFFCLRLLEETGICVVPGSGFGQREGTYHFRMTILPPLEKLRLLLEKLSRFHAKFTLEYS
Test: Stabilization effect of amino acids on ALT in control substance (residual activity after storage)
Assay type: biochemical
Details: for activity at 10000 µM: 96 h; for remaining activity at 1000 µM: tyrosine 1 mmol/L; for remaining activity at 5000 µM: valine 5 mmol/L; for remaining activity at 20000 µM: valine 20 mmol/L; for remaining activity at 50000 µM: valine 50 mmol/L; for remaining activity at 100000 µM: valine 100 mmol/L
Experimental: Using a human serum base and a BSA base as a medium, control substances were prepared respectively by adding, as a stabilizer, no amino acid, valine (10 mmol/L) as amino acid, proline (10 mmol/L) or other amino acid (10 mmol/L, provided that 1 mmol/L in case of tyrosine) to the respective mediums and then adding, as an enzyme, ALT (about 100 U/L).
The respective control substances thus obtained were stored at 45°C for four days and the residual activity of ALT contained in the respective control substances was measured.
CO., LTD. (manufacturing No. T-71). Furthermore, the human serum base used herein is a human serum base prepared by previously subjecting human serum to a heat treatment at 56°C for four hours thereby to devitalize an endogenous enzyme, followed by sterilization by filtration using a membrane filter of 0.2 µm in a pore diameter. The BSA base used herein is BES buffer (20 mmol/L) containing 3W/V% BSA.
With regard to the residual activity of ALT, the residual activity of ALT was measured by using an ALT reagent L "KOKUSAI" manufactured by INTERNATIONAL REAGENTS CORPORATION.
Valine and r-ALT were added to a human serum base and a BSA base in the concentration of about 100 U/L and, after storage at 45°C for four days, the residual activity was measured.

[1] = BSA base, amino acid 10 mmol/L, r-ALT about 100 U/L, stored at 45°C for four days (Example 1), read-out: Residual activity (%) of ALT
[2] = Human serum base, amino acid 10 mmol/L, r-ALT about 100 U/L, stored at 45°C for four days (Example 1), read-out: Residual activity (%) of ALT
[3] = read-out: Residual activity (%) of ALT, BSA base, amino acid 10 mmol/L, r-ALT about 100 U/L, stored at 45°C for four days (Example 1)
[4] = read-out: Residual activity (%) of ALT, Human serum base, amino acid 10 mmol/L, r-ALT about 100 U/L, stored at 45°C for four days (Example 1)
[5] = BSA base, valine 0.5 mmol/L, 45°C for four days (Example 2)
[6] = BSA base, 45°C for four days (Example 2)
[7] = Human serum base, 45°C for four days (Example 2)

Row | SMILES | activity at 10000 µM [1] [%] | activity at 10000 µM [2] [%] | other results
1 | NCCCC[C@H](N)C(=O)O [Lysine] | 31 | 20 | –
2 | CSCC[C@H](N)C(=O)O [Methionine] | 31 | 20 | –
3 | N[C@@H](CC(=O)O)C(=O)O [Aspartic acid] | – | – | remaining activity at 10000 µM [1]: 23%; remaining activity at 10000 µM [2]: 13%
4 | N[C@@H](Cc1c[nH]cn1)C(=O)O [Histidine] | 28 | 15 | –
5 | NC(=O)CC[C@H](N)C(=O)O [Glutamine] | 15 | 17 | –
6 | NCC(=O)O [Glycine] | 30 | 19 | –
7 | N[C@@H](Cc1ccccc1)C(=O)O [phenylalanine] | 31 | 19 | –
8 | O=C(O)[C@@H]1CCCN1 [proline] | 61 | 35 | –
9 | N[C@@H](CCC(=O)O)C(=O)O [Glutamic acid] | – | – | remaining activity at 10000 µM [3]: 28%; remaining activity at 10000 µM [4]: 15%
10 | NC(=O)C[C@H](N)C(=O)O [Asparagine] | 25 | 14 | –
11 | CC[C@H](C)[C@H](N)C(=O)O [Isoleucine] | 28 | 18 | –
12 | N[C@@H](CS)C(=O)O [Cysteine] | 24 | 14 | –
13 | N=C(N)NCCC[C@H](N)C(=O)O [Arginine] | – | – | activity at 10000 µM [3]: 30%; activity at 10000 µM [4]: 18%
14 | N[C@@H](Cc1ccc(O)cc1)C(=O)O [Tyrosine] | – | – | remaining activity at 1000 µM (BSA base, r-ALT about 100 U/L, stored at 45°C for four days (Example 1)): 31%; remaining activity at 1000 µM (Human serum base, r-ALT about 100 U/L, stored at 45°C for four days (Example 1)): 18%
15 | C[C@@H](O)[C@H](N)C(=O)O [Threonine] | 31 | 18 | –
16 | N[C@@H](CO)C(=O)O [Serine] | 32 | 19 | –
17 | N[C@@H](Cc1c[nH]c2ccccc12)C(=O)O [Tryptophane] | 30 | 18 | –
18 | CC(C)[C@H](N)C(=O)O [Valine] | 62 | 55 | Residual activity (%) of ALT [5]: 36%; remaining activity at 500 µM [5]: 38%; remaining activity at 5000 µM [6]: 46%; remaining activity at 10000 µM (BSA base, valine 10 mmol/L, 45°C for four days (Example 2), read-out: Residual activity (%) of ALT): 62%; remaining activity at 20000 µM [6]: 65%; remaining activity at 50000 µM [6]: 64%; remaining activity at 100000 µM [6]: 65%; remaining activity at 500 µM (Human serum base, valine 0.5 mmol/L, 45°C for four days (Example 2)): 28%; remaining activity at 5000 µM [7]: 33%; remaining activity at 10000 µM (Human serum base, valine 10 mmol/L, 45°C for four days (Example 2), read-out: Residual activity (%) of ALT): 55%; remaining activity at 20000 µM [7]: 56%; remaining activity at 50000 µM [7]: 56%; remaining activity at 100000 µM [7]: 55%
19 | C[C@H](N)C(=O)O [Alanine] | 28 | 15 | –
20 | CC(C)C[C@H](N)C(=O)O [Leucine] | 28 | 20 | –
